Experimental data reported in patent US10472366B2, “Glucuronide prodrugs of tofacitinib” (THERAVANCE BIOPHARMA R&D IP, LLC, priority 2017, dated 2019).
Where “and” joins values, the source holds several entries; their conditions need not be identical. Equal values may be shown once.

What was measured:
[1] = test system: β-glucuronidase in rat colon feces; assay: Rat colon fecal homogenate stability assay; type: in vitro ADME; conditions: in vitro half-life in rat fecal supernatant-homogenate, anaerobic, 10 μM substrate, individual values when assay repeated; for half-life at 10 μM: male, rat, rat colon fecal supernatant-homogenate, read-out: T½
From the text: The compounds of the present invention contain a glucuronide prodrug moiety that is expected to be cleaved by β-glucuronidase enzyme. The objective of this assay was to determine the half-life for compounds of the present invention in the presence of β-glucuronidase in rat colon feces.
Following sacrifice of a naïve male rat (˜300 g) by cardiac puncture exsanguination, the colon was ligated and removed to an anaerobic chamber (AS-580, Anaerobe Systems). The fecal content was removed within the chamber and was diluted 1:10 with phosphate buffer (1 gram fecal content to 9 mL phosphate buffer) and the resulting mixture was homogenized using a handheld Omni Tissue Master. The fecal homogenate was centrifuged at 2000 g for 10 min to remove bulk material and the supernatant was removed and used for the incubations.
DMSO stock solutions (10 mM) of the test compounds and sulfasalazine (control) were prepared. Sulfasalazine was used as a positive control to confirm viability of the fecal supernatant-homogenate (see, e.g., Azad Khan et al., Clinical Science (1983) 64, 349-354). If the in vitro half-life (T½) for sulfasalazine in the fecal sample was less than 30 min, the fecal sample was deemed to be viable and in true anaerobic conditions. However, if the T½ for sulfasalazine was greater than 30 min, the fecal sample was typically contaminated with oxygen and was not viable. The final substrate concentration of each assay was 10 μM. Reactions were started by adding a 5 μL aliquot of diluted test compound stock solution into 300 μL of rat fecal supernatant-homogenate. At 0, 15, 30, 60, 90, and 120 min post reaction initiation, a 50 μL aliquot was removed and added to a mixture of 200 μL of acetonitrile with 3% formic acid and an internal standard. All samples were centrifuged at 2000 g for 10 min after which 50 μL of supernatant was diluted into 150 μL of water for analysis on an LC-MS system. In vitro half-lives (T½) for the test compounds were calculated as follows: T½=0.693/elimination rate constant. When the assay was performed more than once, individual values are reported.

[2] = Oral pharmacokinetics in mouse assay; type: in vivo; conditions: liberated tofacitinib AUC0-6 h in colon tissue; male Balb/c mice, single PO dose 5 mg/kg of test compound
Procedure: When cleaved by β-glucuronidase enzyme, the compounds of the present invention release tofacitinib. The object of this assay was to determine tofacitinib exposure (AUC0-6 h) in colon tissue and plasma following oral dosing of compounds of the present invention in mice.
Male Balb/c mice (n=2/time point) received a single PO oral gavage dose (5 mg/kg in 1:20 mixture of 5% DMSO and 1% HPMC) of the test compound. At 2 h and 6 h post-dosing, mice were sacrificed via cardiac puncture exsanguination and blood samples were taken and placed into sample tubes (Microtainer, Becton, Dickinson and Company) containing sodium fluoride and then placed on ice. Plasma was obtained by centrifugation (Eppendorf centrifuge, 5804R) for 4 min at approximately 12,000 rpm at 4° C.
The colons were removed from the exsanguinated mice and the colon fecal contents were gently removed. The colons were flushed with saline and patted dry. […]
The concentration of tofacitinib in each sample was determined as follows: the plasma and colon homogenate samples were vortexed, combined with a 50 μL aliquot of rat plasma, extracted with 200 μL of ACN containing an internal standard and quantified against the internal standard by LC-MS. An area-under-the-concentration curve (AUC0-6 h) was calculated for plasma and colon test compound and liberated tofacitinib. […]

[3] = test system: oxazolone-induced colitis; assay: Mouse model of oxazolone-induced colitis; type: in vivo; conditions: PO, BID, BALB/C mice, vs vehicle/oxazolone, p<0.05
Procedure: Oxazolone-induced colitis is an experimental model that has a histological resemblance to human ulcerative colitis (Heller et al. […], 2002, 17, 629-638). Adult BALB/C mice (25-28 g, 9-12 weeks of age) from BioNeeds (India) were used in the assay. On Day 1, animals were lightly anesthetized with isoflurane and the hairs between the shoulder were carefully removed. Oxazolone (6 mg/mouse, 100 μL, 4:1 acetone:olive oil formulation) or vehicle solution was slowly applied to the bare skin patch to induce skin sensitization. Six days after skin sensitization, the mice were fasted overnight and then anesthetized with ketamine and xylazine administered intraperitoneally. A 1 mL syringe filled with oxazolone solution (0.5 mg/50 μL/mouse in 50% ethanol) or 50% ethanol/saline was inserted carefully ˜3.8 cm into the colon of the mouse. Animals were kept in a head down position and oxazolone or vehicle solution was rectally instilled very slowly over a minute. The mice were held vertically (head down) for another minute to ensure that the entire oxazolone or vehicle solution remained inside the colon. Test compound treatment (PO, BID or TID) or vehicle was initiated the evening prior to the oxazolone intrarectal (IR) challenge. On both first (Day 1) and second (Day 2) days post-oxazolone IR challenge, the Disease Activity Index (DAI) was assessed by treatment-blinded experimenters for each mouse, according to the following subscores: stool consistency (0, normal; 2, loose; 4, diarrhea), gross bleeding and hemoccult test (0, absence; 2, blood tinged; 4, overt blood presence), and weight loss (0, none; 1, 1%-5%; 2, 6^%-10%; 3, 11%-15%; 4, more than 15%); DAI=average of (stool consistency+blood presence+weight loss scores).
An area-under-the-curve (AUC) calculation based on total DAI scores was performed to track disease progression during the course of the experiment. AUC for each experimental group was calculated as: AUC=[(Day 1−Day 0)*Average (DAI Score of Day 0 & Day 1)]+[(Day 2−Day 1)*Average (DAI Score of Day 1 & Day 2)]. A Student's t-test compared the DAI AUC score of the vehicle/vehicle and vehicle/oxazolone groups to evaluate whether disease was induced following oxazolone treatment. This was followed by a one-way analysis of variance (ANOVA), with Dunnett's post hoc test, to compare the DAI AUC score of the vehicle/oxazolone and test compound/oxazolone groups. Statistical significance was defined by an α level set at p<0.05.

[4] = Oral pharmacokinetics in rat assay; type: in vivo; conditions: liberated tofacitinib AUC0-6 h in colon tissue; male Sprague Dawley rats, single PO dose 5 mg/kg of test compound
Procedure: When cleaved by β-glucuronidase enzyme, the compounds of the present invention release tofacitinib. The object of this assay was to determine tofacitinib exposure (AUC0-6 h) in colon tissue and plasma following oral dosing of compounds of the present invention in rats.
Male Sprague Dawley rats (n=2/time point) received a single PO oral gavage dose (5 mg/kg in 1:20 mixture of 5% DMSO and 1% HPMC) of test compounds. At 0.5, 1, 3, 6 and 24 h post-dosing, rats were sacrificed via cardiac puncture exsanguination, and blood samples were taken and placed into sample tubes (Microtainer, Becton, Dickinson and Company) containing sodium fluoride and then placed on ice. Plasma was obtained by centrifugation (Eppendorf centrifuge, 5804R) for 4 minutes at approximately 12,000 rpm at 4° C.
The colons were removed from exsanguinated rats and the colon contents gently removed. The colons were flushed with saline and patted dry. The colons were then homogenized in 3× the weight of sterile water using a tissue homogenizer (Precellys homogenizer, Bertin Instruments) at approximately 4° C. All samples were stored at −80° C. for later bioanalysis.
The concentration of tofacitinib in each sample was determined as follows: the plasma and colon samples were vortexed, combined with a 50 μL aliquot of rat plasma, extracted with 200 μL of ACN containing an internal standard and quantified against the internal standard by LC-MS. An area-under-the-concentration curve (AUC0-6 h) was calculated for plasma and colon test compound and liberated tofacitinib. A key parameter to assess suitability for localized delivery of tofacitinib to the colon was the tofacitinib colon to plasma AUC ratio.

| half-life at 10 μM [1] | Colon AUC [2] | T½ [1] | Colon AUC [4] | Structure (SMILES) | reversal of oxazolone-induced colitis (DAI AUC score) ([3]; 30 mg/kg) | reversal of oxazolone-induced colitis (DAI AUC score) ([3]; 3 and 30 mg/kg) |
| --- | --- | --- | --- | --- | --- | --- |
| 2 min | 6.07 µg·h/g | – | – | C[C@@H]1CCN(C(=O)CC#N)C[C@@H]1N(C)c1ncnc2c1ccn2C(=O)N(C)c1cc([N+](=O)[O-])ccc1O[C@@H]1O[C@H](C(=O)O)[C@@H](O)[C@H](O)[C@H]1O [Compound III-1, (2S,3S,4S,5R,6S)-6-(2-(4-(((3R,4R)-1-(2-Cyanoacetyl)-4-methylpiperidin-3-yl)(methyl)amino)-N-methyl-7H-pyrrolo[2,3-d]pyrimidine-7-carboxamido)-4-nitrophenoxy)-3,4,5-trihydroxytetrahydro-2H-pyran-2-carboxylic Acid] | statistically significant reversal | – |
| 14 min | – | 16 min and < 15 min | 20.2 µg·h/g | C[C@@H]1CCN(C(=O)CC#N)C[C@@H]1N(C)c1ncnc2c1ccn2C(=O)N(C)CCN(C)C(=O)O[C@@H]1O[C@H](C(=O)O)[C@@H](O)[C@H](O)[C@H]1O [Compound II-1, (2S,3S,4S,5R,6S)-6-(((2-(4-(((3R,4R)-1-(2-Cyanoacetyl)-4-methylpiperidin-3-yl)(methyl)amino)-N-methyl-7H-pyrrolo[2,3-d]pyrimidine-7-carboxamido)ethyl)(methyl)carbamoyl)oxy)-3,4,5-trihydroxytetrahydro-2H-pyran-2-carboxylic Acid] | – | statistically significant reversal |
